From patent US10898469B2, “Imidazolylamide derivative” (Sumitomo Dainippon Pharma Co., Ltd., priority 2016, dated 2021)
Structures can show the parent of a compound that is named as a salt. Where two headings read alike, the source gives them in different places.

Columns and labels:
[1] = Pharmacokinetic assay in tumor-bearing mice where HCT-116 cells were transplanted (Test Example 3); format: in vivo; settings: female, BALB/cAnNCrlj-nu/nu, plasma, tumor-bearing nude mouse; for concentration at 1 h: read-out: Plasma concentrations after oral administration, 1 hour; for concentration at 2 h: read-out: Plasma concentrations after oral administration, 2 hours; for concentration at 6 h: read-out: Plasma concentrations after oral administration, 6 hours; for concentration at 24 h: read-out: Plasma concentrations after oral administration, 24 hours
Method: A 7- to 12-week-old nude mouse (BALB/cAnNCrlj-nu/nu, female, CHARLES RIVER LABORATORIES JAPAN, INC.) received intradermal transplantation of human colorectal cancer-derived HCT-116 cells (ATCC) in an amount of 3×10^6 cells/mouse around the ventral part. […] Blood was collected 1, 2, 6, and 24 hours after administration, and centrifuged to afford plasma samples. Methanol was added to the plasma samples so as to be adjusted to 80% of the final concentration. The samples were centrifuged and filtered to be deproteinized. Then, the test compound was detected and quantitated with LC-MS/MS (API4000, AB SCIEX). In quantitation, a calibration curve was prepared with mouse plasma comprising a known amount of the compound and Bezafibrate was used for the internal standard.
The test in Test Example 3 was performed for the compounds of Examples.
The following table and FIGS. 1 to 5 show temporal changes of the plasma concentrations of compounds after oral administration.

FaDu cells [2] = assay: Inhibition test for sphere-forming ability of cancer cells in the presence of BSA (Test Example 2), FaDu; format: cell-based, human; settings: in the presence of 5% BSA, cultured 4 days
Method: Human colorectal cancer-derived HCT-116 cells, human colon-adenocarcinoma-derived HT-29 cells, and human pharyngeal cancer-derived FaDu cells were available from American Type Culture Collection (ATCC). HCT-116 cells and HT-29 cells were cultured at 37° C. under 5% CO2 using the McCoy's 5a medium containing 10% fetal bovine serum (FBS) and 1% penicillin/streptomycin, and FaDu cells were cultured at 37° C. under 5% CO2 using the MEM medium containing 10% FBS, 1% non-essential amino acid, 1% sodium pyruvate, 5% bovine serum albumin (BSA), and 1% penicillin/streptomycin. HCT-116 cells, HT-29 cells, and FaDu cells were seeded in a 384 Well Black Clear Bottom Ultra-Low Attachment Microplate (Corning Cat. No. 3827) in an amount of 350-800 cells/well using the DMEM/F12 medium containing 2% B27 supplement (GIBCO), 20 ng/mL epidermal growth factor (EGF) (peprotech), 10 ng/mL basic fibroblast growth factor (bFGF) (peprotech), 5 μg/mL insulin (Sigma), 5% bovine serum albumin (BSA), and 1% penicillin/streptomycin. Each test compound was added into each well to adjust the final concentration of DMSO to 0.1%, and the cells were cultured for 4 days. The number of viable cells in each well was then measured with CellTiter-Glo® Luminescent Cell Viability Assay (Promega) to calculate the concentration of each test compound for 50% inhibition of cell proliferation (Sphere IC50 value; μmol/L).
The experiment of Test Example 2 was performed for each compound of each Example.
The concentration of each test compound for 50% inhibition of cell proliferation (Sphere IC50 value; μmol/L) is shown in the following Table.

HT-29 cells [3] = assay: Inhibition test for sphere-forming ability of cancer cells in the presence of BSA (Test Example 2), HT-29; format: cell-based, human; settings: in the presence of 5% BSA, cultured 4 days
In short: (§1)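 Spheres grown 4 days in ultra-low-attachment wells, 350-800 cells/well, in DMEM/F12 with 2% B27, 20 ng/mL EGF, 10 ng/mL bFGF, 5 μg/mL insulin and 5% BSA; 0.1% DMSO final. Viable cells read by CellTiter-Glo luminescence; Sphere IC50 (μmol/L) for 50% proliferation inhibition.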

HCT-116 cells [4] = assay: Inhibition test for sphere-forming ability of cancer cells (Test Example 1), HCT-116; format: cell-based, human; settings: for IC50: HCT-116 cells, concentration for 50% inhibition of cell proliferation, read-out: IC50 (μmol/L) HCT-116 (Sphere IC50 value); for inhibitory effect on the sphere-forming ability of cancer cells: Test Example 1, summary in words, cell line not given (HCT-116, HT-29, FaDu tested)
In short: (§2)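 Sphere formation, non-adherent, serum-free: 350-800 cells/well, DMEM/F12 + 2% B27, 20 ng/mL EGF, 10 ng/mL bFGF, 5 μg/mL insulin. Compound in 0.1% DMSO final, 4 d. CellTiter-Glo luminescence; IC50 (μmol/L) for 50% inhibition of proliferation.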

FaDu cells [5] = assay: Inhibition test for sphere-forming ability of cancer cells (Test Example 1), FaDu; format: cell-based, human; settings: concentration for 50% inhibition of cell proliferation, read-out: IC50 (μmol/L) FaDu (Sphere IC50 value)
In short: as §2

HT-29 cells [6] = assay: Inhibition test for sphere-forming ability of cancer cells (Test Example 1), HT-29; format: cell-based, human; settings: concentration for 50% inhibition of cell proliferation, read-out: IC50 (μmol/L) HT-29 (Sphere IC50 value)
In short: as §2

HCT-116 cells [7] = assay: Inhibition test for sphere-forming ability of cancer cells in the presence of BSA (Test Example 2), HCT-116; format: cell-based, human; settings: for IC50: HCT-116 cells, in the presence of 5% BSA, cultured 4 days; for inhibitory effect on the sphere-forming ability of cancer cells: Test Example 2, in the presence of 5% BSA, summary in words, cell line not given (HCT-116, HT-29, FaDu tested)
In short: as §1

[8] = Solid state thermal stability; format: physicochemical; settings: 70° C., vessel left open
Method: The solid state thermal stability was measured for the compounds of Examples 237 and 238 according to the following method. The compounds of Examples 237 and 238 were put into an isothermal vessel set at 70° C., and the samples were stored for 12 weeks under the condition that the vessel was left open. Each elemental analysis result for each compound after 12 weeks is shown as follows.

[9] = oral single dose 150 mg/kg, 0.5% methylcellulose
[10] = oral single dose 100 mg/kg, 20% Labrasol

| SMILES | IC50 (FaDu cells [2]; Homo sapiens, 96 h) [nM] | IC50 (HT-29 cells [3]; Homo sapiens, 96 h) [nM] | IC50 (HCT-116 cells [4]; Homo sapiens) [µmol/L] | IC50 (FaDu cells [5]; Homo sapiens) [µmol/L] | IC50 (HT-29 cells [6]; Homo sapiens) [µmol/L] | IC50 (HCT-116 cells [7]; Homo sapiens, HCT-116, 96 h) [nM] | other results |
| --- | --- | --- | --- | --- | --- | --- | --- |
| O=C(/C=C/c1cccnc1)Nc1cn(Cc2cccc(Cl)c2)cn1 [Example 120, (E)-N-(1-(3-chlorobenzyl)-1H-imidazol-4-yl)-3-(pyridin-3-yl)acrylamide] | – | – | – | – | – | – | concentration at 1 h [1, 9]: 9220 ng/mL; concentration at 2 h [1, 9]: 7040 ng/mL; concentration at 6 h [1, 9]: 1200 ng/mL; concentration at 24 h [1, 9]: 142 ng/mL |
| N#Cc1ccc(/C=C/C(=O)Nc2cn(Cc3cccc(Cl)c3)cn2)cc1OCCO [Example 129] | – | – | – | – | – | – | concentration at 1 h [1, 10]: 465 ng/mL; concentration at 2 h [1, 10]: 309 ng/mL; concentration at 6 h [1, 10]: 271 ng/mL |
| CC(=O)Nc1ccc(/C=C/C(=O)Nc2cn(Cc3cccc(OC(F)(F)F)c3)cn2)cc1 [Example 123] | – | – | – | – | – | – | concentration at 1 h [1, 10]: 287 ng/mL; concentration at 2 h [1, 10]: 837 ng/mL; concentration at 6 h [1, 10]: 79 ng/mL; concentration at 24 h [1, 10]: 62 ng/mL |
| COc1ccc(/C=C/C(=O)Nc2cn(Cc3cccc(C(F)(F)F)c3)cn2)cc1OCCO [Example 128] | – | – | – | – | – | – | concentration at 1 h [1, 10]: 4700 ng/mL; concentration at 2 h [1, 10]: 610 ng/mL; concentration at 6 h [1, 10]: 644 ng/mL; concentration at 24 h [1, 10]: 13 ng/mL |
| COc1ccc(C(=O)Nc2cn(Cc3ccc(F)cc3F)cn2)cc1OC [Example 148] | – | – | – | – | – | – | IC50 (FaDu cells [2]): 5060 nM; IC50 (HT-29 cells [3]): 6780 nM; IC50 (HCT-116 cells [4]): 5.2 µmol/L; IC50 (FaDu cells [5]): 8 µmol/L; IC50 (HT-29 cells [6]): 4.74 µmol/L; IC50 (HCT-116 cells [7]): > 10000 nM |
| O=C(/C=C/c1ccc(F)c(OCCO)c1)Nc1cn(Cc2cccc(C(F)(F)F)c2)cn1 [Example 39, (E)-3-(4-Fluoro-3-(2-hydroxyethoxy)phenyl)-N-(1-(3-(trifluoromethyl)benzyl)-1H-imidazol-4-yl)acrylamide Hydrochloride] | 580 | 2710 | 0.42 | 0.07 | 0.45 | 6860 | – |
| Cl.O=C(/C=C/c1ccc(F)c(O)c1)Nc1cn(Cc2cccc(C(F)(F)F)c2)cn1 [Example 37, (E)-3-(4-Fluoro-3-hydroxyphenyl)-N-(1-(3-(trifluoromethyl)benzyl)-1H-imidazol-4-yl)acrylamide Hydrochloride] | < 10 | 100 | 0.25 | < 0.01 | 0.93 | 550 | inhibitory effect on the sphere-forming ability of cancer cells (HCT-116 cells [4]): particularly potent inhibitory effect; inhibitory effect on the sphere-forming ability of cancer cells (HCT-116 cells [7]): particularly potent inhibitory effect |
| COc1ccc(C(=O)Nc2cn(Cc3cc(F)c(F)c(F)c3)cn2)cc1OC [Example 238, 3,4-Dimethoxy-N-[1-(3,4,5-trifluorobenzyl)-1H-imidazol-4-yl]benzamide tosilate] | – | – | – | – | – | – | Elemental analysis C (%) measured value after 12 weeks ([8]; 12 weeks): 55.51%; Elemental analysis F (%) measured value after 12 weeks ([8]; 12 weeks): 10.15%; Elemental analysis H (%) measured value after 12 weeks ([8]; 12 weeks): 4.33%; Elemental analysis N (%) measured value after 12 weeks ([8]; 12 weeks): 7.48%; Elemental analysis S (%) measured value after 12 weeks ([8]; 12 weeks): 5.62%; solid state thermal stability (change of form) ([8]; stored for 12 weeks): not changed |
| O=C(Nc1cn(Cc2cccc(Cl)c2)cn1)c1cnc2[nH]ccc2c1 [Example 177] | – | – | – | – | – | – | IC50 (FaDu cells [2]): 5260 nM; IC50 (HT-29 cells [3]): 6390 nM; IC50 (HCT-116 cells [4]): 9.96 µmol/L; IC50 (FaDu cells [5]): 3.62 µmol/L; IC50 (HT-29 cells [6]): 6.75 µmol/L; IC50 (HCT-116 cells [7]): > 10000 nM |
| O=C(/C=C/c1ccc(F)c(OCCO)c1)Nc1cn(Cc2cccc(Cl)c2)cn1 [Example 40] | 580 | 3330 | 0.48 | 0.05 | 0.18 | 7450 | – |
| COc1ccc(/C=C/C(=O)Nc2cn(Cc3cc(F)c(F)c(F)c3)cn2)cc1OCCO [Example 32, (E)-3-(3-(2-Hydroxyethoxy)-4-methoxyphenyl)-N-(1-(3,4,5-trifluorobenzyl)-1H-imidazol-4-yl)acrylamide] | 30 | 60 | 0.06 | 0.06 | 0.07 | 60 | inhibitory effect on the sphere-forming ability of cancer cells (HCT-116 cells [4]): particularly potent inhibitory effect; inhibitory effect on the sphere-forming ability of cancer cells (HCT-116 cells [7]): particularly potent inhibitory effect |

The next lines start with results.

| IC50 (FaDu cells [2]; Homo sapiens, 96 h) [nM] | IC50 (HT-29 cells [3]; Homo sapiens, 96 h) [nM] | IC50 (HCT-116 cells [4]; Homo sapiens) [µmol/L] | IC50 (FaDu cells [5]; Homo sapiens) [µmol/L] | IC50 (HT-29 cells [6]; Homo sapiens) [µmol/L] | IC50 (HCT-116 cells [7]; Homo sapiens, HCT-116, 96 h) [nM] | SMILES | other results |
| --- | --- | --- | --- | --- | --- | --- | --- |
| 590 | 4290 | 0.89 | 0.73 | 0.54 | 5790 | O=C(/C=C/c1cccnc1)Nc1cn(Cc2cccc(Cl)c2)cn1 [Example 41, (2E)-N-[1-(3-chlorobenzyl)-1H-imidazol-4-yl]-3-(pyridin-3-yl)prop-2-enamide] | – |
| 30 | 580 | 0.15 | < 0.01 | 0.89 | 720 | Cl.O=C(/C=C/c1ccc(F)c(O)c1)Nc1cn(Cc2cccc(Cl)c2)cn1 [Example 38] | inhibitory effect on the sphere-forming ability of cancer cells (HCT-116 cells [4]): particularly potent inhibitory effect |
| 60 | 520 | 0.08 | 0.08 | 0.06 | 690 | N#Cc1ccc(/C=C/C(=O)Nc2cn(Cc3cccc(C(F)(F)F)c3)cn2)cc1OCCO [Example 36, (E)-3-(4-Cyano-3-(2-hydroxyethoxy)phenyl)-N-(1-(3-(trifluoromethyl)benzyl)-1H-imidazol-4-yl)acrylamide] | inhibitory effect on the sphere-forming ability of cancer cells (HCT-116 cells [4]): particularly potent inhibitory effect; inhibitory effect on the sphere-forming ability of cancer cells (HCT-116 cells [7]): particularly potent inhibitory effect |
| 600 | 620 | 0.55 | 0.17 | 0.18 | 830 | CCCC(=O)Nc1ccc(/C=C/C(=O)Nc2cn(Cc3cccc(Cl)c3)cn2)cc1 [Example 6, (E)-N-(4-(3-((1-(3-Chlorobenzyl)-1H-imidazol-4-yl)amino)-3-oxoprop-1-en-1-yl)phenyl)butylamide] | – |
